# From PubChem BioAssay AID1963850 (Molecular Pharmacology Branch, DTP, NCI, 2024)
# System: 192522-019-R-J2-PDC complex tumor spheroid viability
# Assay: Anticancer human tumor 192522-019-R-J2-PDC patient-derived colon adenocarcinoma cell line growth inhibition [POLQ]
# Details: for IC50: curve of first compound; for viability, T/C: stronger effect = lower value
# Outline: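 Growth inhibition in 3D: complex spheroids (tumor PDC, HUVEC, MSC) treated with POLQ inhibitor combinations; where Cmax unknown, highest tested concentration 10 microM, except SN-38 at 1 microM.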
# [1] = second compound 0.0316 µM, first compound 0.0316 µM
# [2] = second compound 0.0316 µM, first compound 0.1 µM
# [3] = second compound 0.1 µM, first compound 0.0316 µM
# [4] = second compound 0.1 µM, first compound 0.1 µM
# [5] = second compound 0.316 µM, first compound 0.0316 µM
# [6] = second compound 0.316 µM, first compound 0.1 µM
# [7] = second compound 1 µM, first compound 0.0316 µM
# [8] = second compound 1 µM, first compound 0.1 µM
# [9] = second compound 3.16 µM, first compound 0.0316 µM
# [10] = second compound 3.16 µM, first compound 0.1 µM
# [11] = second compound 10 µM, first compound 0.0316 µM
# [12] = second compound 10 µM, first compound 0.1 µM
# [13] = second compound 0.0316 µM, first compound 0.316 µM
# [14] = second compound 0.0316 µM, first compound 1 µM
# [15] = second compound 0.0316 µM, first compound 3.16 µM
# [16] = second compound 0.0316 µM, first compound 10 µM
# [17] = second compound 0.1 µM, first compound 0.316 µM
# [18] = second compound 0.1 µM, first compound 1 µM
# [19] = second compound 0.1 µM, first compound 3.16 µM
# [20] = second compound 0.1 µM, first compound 10 µM
# [21] = second compound 0.316 µM, first compound 0.316 µM
# [22] = second compound 0.316 µM, first compound 1 µM
# [23] = second compound 0.316 µM, first compound 3.16 µM
# [24] = second compound 0.316 µM, first compound 10 µM
# [25] = second compound 1 µM, first compound 0.316 µM
# [26] = second compound 1 µM, first compound 1 µM
# [27] = second compound 1 µM, first compound 3.16 µM
# [28] = second compound 1 µM, first compound 10 µM
# [29] = second compound 3.16 µM, first compound 0.316 µM
# [30] = second compound 3.16 µM, first compound 1 µM
# [31] = second compound 3.16 µM, first compound 3.16 µM
# [32] = second compound 3.16 µM, first compound 10 µM
# [33] = second compound 10 µM, first compound 0.316 µM
# [34] = second compound 10 µM, first compound 1 µM
# [35] = second compound 10 µM, first compound 3.16 µM
# [36] = second compound 10 µM, first compound 10 µM
# 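Note: spheroids exposed to drugs for seven days before reading.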
# 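Throughout, for viability, T/C: 100% = DMSO vehicle control viability in luminescence.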
compound,measurement,setting,value
CC[C@@]1(O)C(=O)OCc2c1cc1n(c2=O)Cc2cc3c(CN(C)C)c(O)ccc3nc2-1 + COC1C(OC(N)=O)C(O)C(Oc2ccc3c(O)c(NC(=O)c4ccc(O)c(CC=C(C)C)c4)c(=O)oc3c2C)OC1(C)C,IC50,second compound 0.0316 µM,> 100 nM
same,IC50,second compound 0.1 µM,> 100 nM
same,IC50,second compound 0.316 µM,> 100 nM
same,IC50,second compound 1 µM,> 100 nM
same,IC50,second compound 3.16 µM,> 100 nM
same,IC50,second compound 10 µM,> 100 nM
same,"viability, T/C","second compound 0.0316 µM, first compound 0.000316 µM",113%
same,"viability, T/C","second compound 0.0316 µM, first compound 0.001 µM",95.6%
same,"viability, T/C","second compound 0.0316 µM, first compound 0.00316 µM",101%
same,"viability, T/C","second compound 0.0316 µM, first compound 0.01 µM",96.6%
same,"viability, T/C",[1],87.5%
same,"viability, T/C",[2],52.1%
same,"viability, T/C","second compound 0.1 µM, first compound 0.000316 µM",98.4%
same,"viability, T/C","second compound 0.1 µM, first compound 0.001 µM",103%
same,"viability, T/C","second compound 0.1 µM, first compound 0.00316 µM",102%
same,"viability, T/C","second compound 0.1 µM, first compound 0.01 µM",96%
same,"viability, T/C",[3],90.4%
same,"viability, T/C",[4],56.1%
same,"viability, T/C","second compound 0.316 µM, first compound 0.000316 µM",105%
same,"viability, T/C","second compound 0.316 µM, first compound 0.001 µM",106%
same,"viability, T/C","second compound 0.316 µM, first compound 0.00316 µM",102%
same,"viability, T/C","second compound 0.316 µM, first compound 0.01 µM",99.6%
same,"viability, T/C",[5],87.6%
same,"viability, T/C",[6],58.1%
same,"viability, T/C","second compound 1 µM, first compound 0.000316 µM",103%
same,"viability, T/C","second compound 1 µM, first compound 0.001 µM",99.6%
same,"viability, T/C","second compound 1 µM, first compound 0.00316 µM",105%
same,"viability, T/C","second compound 1 µM, first compound 0.01 µM",102%
same,"viability, T/C",[7],84.8%
same,"viability, T/C",[8],53.9%
same,"viability, T/C","second compound 3.16 µM, first compound 0.000316 µM",102%
same,"viability, T/C","second compound 3.16 µM, first compound 0.001 µM",99.1%
same,"viability, T/C","second compound 3.16 µM, first compound 0.00316 µM",99.8%
same,"viability, T/C","second compound 3.16 µM, first compound 0.01 µM",109%
same,"viability, T/C",[9],92.3%
same,"viability, T/C",[10],55.5%
same,"viability, T/C","second compound 10 µM, first compound 0.000316 µM",108%
same,"viability, T/C","second compound 10 µM, first compound 0.001 µM",103%
same,"viability, T/C","second compound 10 µM, first compound 0.00316 µM",98.5%
same,"viability, T/C","second compound 10 µM, first compound 0.01 µM",103%
same,"viability, T/C",[11],84.8%
same,"viability, T/C",[12],57.6%
COc1cccc2c1C(=O)c1c(O)c3c(c(O)c1C2=O)CC(O)(C(=O)CO)CC3OC1CC(N)C(O)C(C)O1 (stereo unspecified) + Nc1ccc(C#CCN(C(=O)Cc2ncc(C(F)(F)F)cc2C(F)(F)F)c2ccc(F)cc2)nn1,IC50,second compound 0.0316 µM,> 10000 nM
same,IC50,second compound 0.1 µM,> 10000 nM
same,IC50,second compound 0.316 µM,> 10000 nM
same,IC50,second compound 1 µM,> 10000 nM
same,IC50,second compound 3.16 µM,> 10000 nM
same,IC50,second compound 10 µM,> 10000 nM
same,"viability, T/C",[1],100%
same,"viability, T/C",[2],85%
same,"viability, T/C",[13],79.4%
same,"viability, T/C",[14],75.7%
same,"viability, T/C",[15],74%
same,"viability, T/C",[16],58.9%
same,"viability, T/C",[3],108%
same,"viability, T/C",[4],80.4%
same,"viability, T/C",[17],81.6%
same,"viability, T/C",[18],79.9%
same,"viability, T/C",[19],68.4%
same,"viability, T/C",[20],62.4%
same,"viability, T/C",[5],100%
same,"viability, T/C",[6],89%
same,"viability, T/C",[21],80.1%
same,"viability, T/C",[22],81.5%
same,"viability, T/C",[23],73.5%
same,"viability, T/C",[24],62.7%
same,"viability, T/C",[7],88.6%
same,"viability, T/C",[8],81.9%
same,"viability, T/C",[25],81.2%
same,"viability, T/C",[26],71.2%
same,"viability, T/C",[27],67.8%
same,"viability, T/C",[28],58%
same,"viability, T/C",[9],96.7%
same,"viability, T/C",[10],85%
same,"viability, T/C",[29],87.9%
same,"viability, T/C",[30],75.4%
same,"viability, T/C",[31],69.2%
same,"viability, T/C",[32],58.1%
same,"viability, T/C",[11],92.4%
same,"viability, T/C",[12],81.2%
same,"viability, T/C",[33],94.7%
same,"viability, T/C",[34],71.5%
same,"viability, T/C",[35],60.4%
same,"viability, T/C",[36],49.1%
CC1COCCN1c1cc(C2(O)CC3CCC(C2)O3)c2cnn(-c3ccn[nH]3)c2n1 (stereo unspecified) + COC1C(OC(N)=O)C(O)C(Oc2ccc3c(O)c(NC(=O)c4ccc(O)c(CC=C(C)C)c4)c(=O)oc3c2C)OC1(C)C,IC50,second compound 0.0316 µM,227 nM
same,IC50,second compound 0.1 µM,242 nM
same,IC50,second compound 0.316 µM,314 nM
same,IC50,second compound 1 µM,254 nM
same,IC50,second compound 3.16 µM,239 nM
same,IC50,second compound 10 µM,247 nM
same,"viability, T/C",[1],95.5%
same,"viability, T/C",[2],70.3%
same,"viability, T/C",[13],41.9%
same,"viability, T/C",[14],33.7%
same,"viability, T/C",[15],42.8%
same,"viability, T/C",[16],46.5%
same,"viability, T/C",[3],102%
same,"viability, T/C",[4],81.8%
same,"viability, T/C",[17],39.8%
same,"viability, T/C",[18],33%
same,"viability, T/C",[19],41.6%
same,"viability, T/C",[20],47%
same,"viability, T/C",[5],101%
same,"viability, T/C",[6],83.4%
same,"viability, T/C",[21],50.8%
same,"viability, T/C",[22],36.9%
same,"viability, T/C",[23],40.7%
same,"viability, T/C",[24],48.5%
same,"viability, T/C",[7],96.3%
same,"viability, T/C",[8],73.5%
same,"viability, T/C",[25],45%
same,"viability, T/C",[26],33.5%
same,"viability, T/C",[27],41.7%
same,"viability, T/C",[28],53.1%
same,"viability, T/C",[9],94%
same,"viability, T/C",[10],77.4%
same,"viability, T/C",[29],39.8%
same,"viability, T/C",[30],34.4%
same,"viability, T/C",[31],41.3%
same,"viability, T/C",[32],49.1%
same,"viability, T/C",[11],93.1%
same,"viability, T/C",[12],70.8%
same,"viability, T/C",[33],42.1%
same,"viability, T/C",[34],38.5%
same,"viability, T/C",[35],45.9%
same,"viability, T/C",[36],51%
